{"source": "patent US9085523B2", "about": "“Compound for treating cartilage disorders” (ONO PHARMACEUTICAL CO., LTD., priority 2011, dated 2015)", "key": {"[1]": {"system": "blood pressure and heart rate of normal rabbit", "experiment": "Measurement of blood pressure and heart rate of normal rabbit", "type": "in vivo", "details": "for effect on circulatory system: at the dose exhibiting efficacy on the knee cartilage defect model, comparison of blood concentrations of Compound A", "protocol": "Compound A acts on circulatory system and affects on blood pressure and heart rate.\nBlood pressure and heart rate were measured by the following method using female Japanese white domestic rabbit. An animal was retained in dorsal position on an operation table on a measurement day. After the hair of right femur area was removed, a local anesthetic was given by administering an appropriate amount of lidocaine injection. The skin and muscle was incised to expose femur artery and vein, and a catheter (manufactured by Atom Medical Corporation) filled with saline containing heparin (about 10 units/mL) beforehand was placed in the right femur artery.\nAfter retaining the rabbit in a rabbit blood sampling box (manufactured by NATSUME SEISAKUSHO CO LTD.), the catheter was connected to a pressure transducer (DX-100: manufactured by NIHON KOHDEN CORPORATION) to measure blood pressure with a strain pressure amplifier (AP-641G: manufactured by NIHON KOHDEN CORPORATION) and heart rate with an instantaneous heart rate counter (AT-601G: manufactured by NIHON KOHDEN CORPORATION). Blood pressure and waveform of heartbeat were recorded by a recorder (WR3701: manufactured by Graphtech Corporation). Measurement was conducted under awake condition after confirming blood pressure and heart rate became stable.\n(§1) Compound A was administered cumulatively through right auricular vein with a syringe pump (manufactured by TERUMO CORPORATION) at 0 (medium: saline), 100, 300 and 1000 ng/kg/min (administration volume: 1 mL/kg/h). Each dose was administered for more than 60 minutes and blood was collected from left auricular vein 60 minutes after the administration started. Blood was collected with a 1 mL syringe with a needle of […] treated with heparin (about 10 units/mL) beforehand. The collected blood was centrifuged at 4° C. 13,500 g for 5 minutes and the obtained supernatant (plasma) was stored at […] to be provided for the measurement of blood concentration of Compound A.\nIncrease or decrease ratio of mean blood pressure and heart rate at 5, 10, 15, 20, 30, 40, 50 and 60 minutes after the administration started were calculated based on the values of pre-administration of each subject. Maximum change of blood pressure and heart rate between before and after the administration of Test Compounds was evaluated."}, "[2]": {"experiment": "In vitro hydrolysis test in rabbit plasma (release of Compound A, LC/MS/MS)", "type": "in vitro ADME", "details": "37° C.", "protocol": "The particles were retained inside articular cavity after intra-articular administration. The sustained period of active form inside articular cavity changes depending on hydrolysis period of a test compound. Therefore, the hydrolysis period of a test compound was evaluated and set as an indicator of sustained release of the active form.\nVarious test compounds were dissolved in dimethylsulfoxide, so that the concentration of the solution calculated in Compound A becomes 0.5 mg/mL. The solution (10 μL) was added to 0.5 mL of rabbit plasma and incubated at 37° C. in water bath. 50 μL of the solution was sampled 0, 1, 3, 8, 24, 30, 48 and 72 minutes after the incubation and the concentration of Compound A in sample was determined.\nAfter 50 μL of the solution was sampled in a polyethylene tube, 10 μL of deuterium-labeled Compound A as internal standard and 2 mL of acetonitrile were added, followed by stirring. After centrifugation, 100 μL of the supernatant was sampled in a polyethylene tube and 900 μL of acetonitrile was added thereto, followed by stirring. After filtration, the supernatant was measured by LC/MS/MS and the 50% hydrolysis time was calculated."}, "[3]": {"system": "knee cartilage defect model", "experiment": "Evaluation of cartilage tissue score in knee cartilage defect model", "type": "in vivo", "details": "rabbit, intra-articular, bi-weekly, 6 times; vs vehicle, Steel test", "protocol": "Knee cartilage defect model was prepared by the following method. Female Japanese white domestic rabbit (2.5-3.5 kg) was anesthetized by the administration of sodium pentobarbital (30 mg/kg) through ear vein. The hair around knee articulations of both hind legs was removed and disinfected with iodine tincture. After the incision of the skin of an inert right hind leg, the boundary between patella ligament and articular capsule was incised in dorsal position. Patella was dislocated outward to expose trochlea femoris largely and medial condyle of femur was drilled with a dental drill to prepare small hole (diameter: 4 mm, depth: about 2 mm). The surgical incision was sutured and the surgical site was disinfected with iodine tincture. Femur of a left knee or both knees of pseudo-operation group was only exposed by the same operation without preparing small hole. To avoid infection disease, 100,000 units of benzylpenicilline procaine/125 mg titers of dihydrostreptomycin sulfate/I mg of procaine hydrochloride per rabbit was administered in gluteal muscle. A test compound (12-200 μg/knee, calculated in Compound A which is active form of test compounds) and its medium (5% glucose solution containing 0.05% Tween 80) were administered inside articular cavity of right knee of rabbit at bi-weekly intervals, 6 times for total, and from a week after operation. […]"}, "[4]": {"experiment": "Blood concentration of Compound A during continuous intravenous administration to normal rabbit", "type": "in vivo", "details": "female, Japanese white, plasma, 60 minutes after administration started", "protocol": "as §1"}, "[5]": {"experiment": "Particle forming: mean particle diameter (Dv) and particle distribution (PDI) of suspensions by laser diffraction", "type": "physicochemical", "details": "5% glucose solution containing 0.05% Tween 80", "protocol": "In the specification, the mean particle diameter means the mean particle diameter measured by a laser diffraction/scattering method. In the specification, the mean particle diameter is measured by a laser diffraction grain size distribution measuring apparatus (SALD-2100: manufactured by Shimadzu Corp.). In terms of mean particle diameter, various values such as volume mean diameter, surface mean diameter, median diameter and the like are used as an indicator of mean particle diameter, and in the specification, volume mean diameter (Dv) is used as a mean particle diameter.\nIn addition, a particle to be injected inside articular cavity is preferably a particle with a mean particle diameter with less variance and uniform size. The variance of mean particle diameter can be evaluated by measuring particle size distribution and the particle size distribution can be measured by a laser diffraction grain size distribution measuring apparatus as well as a mean particle diameter. […] In the description, PDI value and Dn was measured by a laser diffraction grain size distribution measuring apparatus (SALD-2100: manufactured by Shimadzu Corp.).\nTo distilled water, Compound 4-11 dissolved in ethanol was added slowly, 5% glucose solution and 5% glucose solution containing 0.05% Tween 80 with stirring. […] The quantity of each component is as follows, […]"}, "[6]": {"details": "rabbit, intravenous, 1000 ng/kg/min"}}, "data": [{"molecule": "CCCCCCCCCCCCCCCOc1cccc(C(=O)OCCOC(=O)CCC/C=C\\C[C@@H]2[C@@H](/C=C/C[C@H](O)C3(CC)CCC3)[C@H](O)C[C@H]2Cl)c1", "note": "[Compound 4-1, 2-{[(5Z)-7-{(1R,2R,3R,5R)-5-chloro-2-[(1E,4S)-4-(1-ethylcyclobutyl)-4-hydroxy-1-buten-1-yl]-3-hydroxycyclopentyl}-5-heptenoyl]oxy}ethyl 3-(pentadecyloxy)benzoate]", "values": [{"measurement": "effect on circulatory system", "setting": "[1]", "result": "hardly affects on circulatory system"}, {"measurement": "Time of 50% hydrolysis", "setting": "[2]", "result": 10.6, "unit": "days"}]}, {"molecule": "CCCCCCCCCCCCCCCOc1ccc(C(=O)OCCOC(=O)CCC/C=C\\C[C@@H]2[C@@H](/C=C/C[C@H](O)C3(CC)CCC3)[C@H](O)C[C@H]2Cl)cc1", "note": "[Compound 4-11, 2-{[(5Z)-7-{(1R,2R,3R,5R)-5-chloro-2-[(1E,4S)-4-(1-ethylcyclobutyl)-4-hydroxy-1-buten-1-yl]-3-hydroxycyclopentyl}-5-heptenoyl]oxy}ethyl 4-(pentadecyloxy)benzoate]", "values": [{"measurement": "effect on circulatory system", "setting": "[1]", "result": "hardly affects on circulatory system"}, {"measurement": "Time of 50% hydrolysis", "setting": "[2]", "result": 7.3, "unit": "days"}]}, {"molecule": "CCCCCCCCCCCCCCCCc1ccc(C(=O)OCCCOC(=O)CCC/C=C\\C[C@@H]2[C@@H](/C=C/C[C@H](O)C3(CC)CCC3)[C@H](O)C[C@H]2Cl)cc1", "note": "[Compound 6-4, 3-{[(5Z)-7-{(1R,2R,3R,5R)-5-chloro-2-[(1E,4S)-4-(1-ethylcyclobutyl)-4-hydroxy-1-buten-1-yl]-3-hydroxycyclopentyl}-5-heptenoyl]oxy}propyl 4-hexadecylbenzoate]", "values": [{"measurement": "Time of 50% hydrolysis", "setting": "[2]", "result": 7.8, "unit": "days"}]}, {"molecule": "CCCCCCCCCCCCCCCC#CCOC(=O)CCC/C=C\\C[C@@H]1[C@@H](/C=C/C[C@H](O)C2(CC)CCC2)[C@H](O)C[C@H]1Cl", "note": "[Compound 19, 2-octadecyn-1-yl(5Z)-7-{(1R,2R,3R,5R)-5-chloro-2-[(1E,4S)-4-(1-ethylcyclobutyl), 4-hydroxy-1-buten-1-yl]-3-hydroxycyclopentyl}-5-heptenoate]", "values": [{"measurement": "cartilage tissue score", "setting": "[3]", "result": "significantly improved"}, {"measurement": "effect on circulatory system", "setting": "[1]", "result": "hardly affects on circulatory system"}, {"measurement": "Time of 50% hydrolysis", "setting": "[2]", "result": 26.2, "unit": "days"}]}, {"molecule": "CCC(CCCCl)[C@@H](O)C/C=C/[C@@H]1[C@@H](C/C=C\\CCCC(=O)O)[C@H](Cl)C[C@H]1O", "note": "(stereo partly drawn) [Compound A, (5Z)-7-{(1R,2R,3R,5R)-5-chloro-2-[(1E,4S)-4-(1-ethylchlorobutyl)-4-hydroxy-1-butenyl]-3-hydroxycyclopentyl}-5-heptenoic acid]", "values": [{"measurement": "blood concentration that does not affect blood pressure", "setting": "[1]; rabbit", "result": "≤ 5.9", "unit": "ng/mL"}, {"measurement": "blood concentration that does not affect heart rate", "setting": "[1]; rabbit", "result": "≤ 2.0", "unit": "ng/mL"}, {"measurement": "increase of heart rate at maximum", "setting": "[1]; rabbit, intravenous, 100 ng/kg/min", "result": "about 5%"}, {"measurement": "increase of heart rate", "setting": "[1]; rabbit, intravenous, 300 ng/kg/min", "result": 15, "unit": "%"}, {"measurement": "decrease of blood pressure", "setting": "[1]; [6]", "result": 16, "unit": "mmHg"}, {"measurement": "increase of heart rate", "setting": "[1]; [6]", "result": 20, "unit": "%"}, {"measurement": "decrease of blood pressure at maximum", "setting": "[1]; rabbit, intravenous, 100 and 300 ng/kg/min", "result": "≤ 5", "unit": "mmHg"}, {"measurement": "concentration at 60 min", "setting": "[4]; continuous intravenous 100 ng/kg/min", "result": 2, "unit": "ng/mL"}, {"measurement": "concentration at 60 min", "setting": "[4]; continuous intravenous 300 ng/kg/min", "result": 5.9, "unit": "ng/mL"}, {"measurement": "concentration at 60 min", "setting": "[4]; continuous intravenous 1000 ng/kg/min", "result": 24.3, "unit": "ng/mL"}]}, {"molecule": "CCCCCCCCCCCCCCCCCC[N+](C)(C)CCOC(=O)CCC/C=C\\C[C@@H]1[C@@H](/C=C/C[C@H](O)C2(CC)CCC2)[C@H](O)C[C@H]1Cl.[Br-]", "note": "[Reference Example 3, N-(2-{[(5Z)-7-{(1R,2R,3R,5R)-5-chloro-2-[(1E,4S)-4-(1-ethylcyclobutyl)-4-hydroxy-1-buten-1-yl]-3-hydroxycyclopentyl}-5-heptenoyl]oxy}ethyl)-N,N-di methyl-octadecyl ammonium bromide]", "values": [{"measurement": "particle forming in dispersion medium", "setting": "[5]", "result": "did not form a particle"}]}]}
